Reference: patent US6265390A, “Methods for expressing nucleic acid sequences using nucleic acid constructs comprising hypoxia response elements” (Oxford Biomedica (UK) Limited, priority 1994, dated 2001)

Legend:
[1] = tested on: MCF-7(-4) cells transfected with thymidine phosphorylase gene; assay: Drug sensitivity of thymidine phosphorylase transfectant -4; format: cell-based, human; conditions: survival curve, FIG. 3
Text: (§1) Human breast cancer cells of the cell line MCF-7 were transfected with a gene for thymidine phosphorylase. […] The gene is suitable for linking up with hypoxically-inducible promoters/enhancers.
(§2) Results of drug sensitivity experiments are shown in FIGS. 3-7. -7, -4, -12, +4 and +16 are all derivatives of MCF-7 which have been transfected with the thymidine phosphorylase gene.
(§3) Note that there is a log scale and therefore the IC50 (the concentration of drug required to inhibit growth by 50%) is more than 100 times lower for the transfectants -12 and -4. Therefore, the expression of one gene at a higher level can make these cells 100 times more sensitive to chemotherapy. Clearly there is variation depending on the level of expression and therefore we want to be able to switch on as high as possible. […] This means that it is the activation step that is important rather than downstream events.

[2] = tested on: MCF-7 wild-type and thymidine phosphorylase transfectant clones; assay: Drug sensitivity of clones -4, -7, -12, -16, +4 compared with wild type; format: cell-based, human; conditions: FIG. 6
Text: as §1, §2, §3

[3] = tested on: control (Wt) non-transfected HT1080 cells and transfectant cells (9-3C, M3); assay: Drug sensitivity after hypoxic or normoxic treatment, control and transfectants; format: cell-based; conditions: 16 hours exposure, 24 hours drug, 96 hour growth delay
Method: (§4) Transfected cells (9-3C and M3) as described in Example 9 were tested for sensitivity to 5-FC. Cells were subjected to hypoxic exposure (16 hours), followed by exposure to 5-FC or 5-FU (24 hours), followed by a 96 hour growth delay.

[4] = tested on: M3 cells (HT1080 transfected with cytosine deaminase under PGK-1 promoter with 3 copies of P24); assay: Hypoxia-induced pro-drug sensitisation, M3 cells; format: cell-based; conditions: 16 hours hypoxic exposure, 24 hours drug, 96 hour growth delay
Method: The PGK-1 hypoxia response element was evaluated within the context of the PGK-1 gene promoter (M3), the 9-27 gene promoter (9-3C) and the thymidine kinase gene promoter (sTK5). […] The promoters and PGK-1 hypoxia response elements were placed upstream of genes encoding the endothelial CD2 surface protein and the negative selectable marker cytosine deaminase. The 9-27 and thymidine kinase promoters were each used with 3 copies of the P18 PGK-1 element and the PGK-1 gene promoter was used with 3 copies of the P24 PGK-1 element. Transfected cells (9-3C and M3) as described in Example 9 were tested for sensitivity to 5-FC. Cells were subjected to hypoxic exposure (16 hours), followed by exposure to 5-FC or 5-FU (24 hours), followed by a 96 hour growth delay.

[5] = tested on: 9-3C cells (HT1080 transfected with cytosine deaminase under 9-27 promoter with 3 copies of P18); assay: Hypoxia-induced pro-drug sensitisation, 9-3C cells; format: cell-based; conditions: 16 hours hypoxic exposure, 24 hours drug, 96 hour growth delay
Method: The PGK-1 hypoxia response element was evaluated within the context of the PGK-1 gene promoter (M3), the 9-27 gene promoter (9-3C) and the thymidine kinase gene promoter (sTK5).
The constructs were similar to those described in Example 7. The promoters and PGK-1 hypoxia response elements were placed upstream of genes encoding the endothelial CD2 surface protein and the negative selectable marker cytosine deaminase. The 9-27 and thymidine kinase promoters were each used with 3 copies of the P18 PGK-1 element and the PGK-1 gene promoter was used with 3 copies of the P24 PGK-1 element.
as §4

[6] = tested on: endogenous human PGK-1 gene expression in HepG2 cells; assay: RNA analysis of endogenous PGK-1 gene expression; format: cell-based; conditions: 100 μM, 16 hours, hypoxia 1% O2
Method: (§5) The cell lines used were HepG2 (human hepatoma), HeLa (human cervical carcinoma) and L cells (mouse fibroblast) grown in minimal essential medium, with Earle's salts, supplemented with fetal bovine serum (10%), glutamine (2 mM), penicillin (50 units/ml) and streptomycin sulfate (50 μg/ml). For assay of endogenous gene expression, and for preparation of nuclear extracts, cells were grown to approximately 70% confluence. […]
(§6) RNA was extracted, analysed by RNase protection, and quantitated as previously described (Pugh et al 1991). […]
(§7) For assay of endogenous PGK-1 gene expression 50 μg of RNA extracted from HepG2 cells was hybridised with a riboprobe which consisted of 121 bp from the 5' end of the exon 3 of the human PGK-1 gene, together with 68 bp of adjacent intron (obtained by PCR of genomic DNA and cloning by standard methods). […] In these experiments a small quantity (0.5 μg) of RNA extracted from K562 cells (a human […] cell line which expresses a globin mRNA abundantly) was added to each sample before hybridisation, and the samples were probed concurrently with the α97 probe in addition to the PGK-1 or LDH-A probe. […]

[7] = tested on: endogenous mouse LDH-A gene expression in L cells; assay: RNA analysis of endogenous LDH-A gene expression; format: cell-based; conditions: 100 μM, 16 hours, hypoxia 1% O2
Method: as §5, §6, §7

O=c1[nH]cc(F)c(=O)[nH]1 [5FU, 5-fluorouracil]
difference in sensitivity between WT and transfectant [1]: relatively little difference | difference in sensitivity of the cells [2]: very little difference | difference in sensitivity following hypoxic or normoxic treatment [3]: no significant difference

Nc1nc(=O)[nH]cc1F [5-FC, 5-fluorocytosine]
sensitivity post-hypoxia [4]: significantly more sensitive | sensitivity post-hypoxia [5]: significantly more sensitive

C[C@@H]1C[C@@H]([C@H](O)CC2CC(=O)NC(=O)C2)C(=O)[C@@H](C)C1 [cycloheximide]
effect on hypoxic induction of gene expression [6]: abrogated the response to hypoxia | effect on hypoxic induction of gene expression [7]: abrogated the response to hypoxia
